In patent publication US11807835B2, “Detergent compositions containing a stabilized enzyme by phosphonates” (ECOLAB USA INC., priority 2016, dated 2023):

What was measured:
protease = assay: Protease activity retention in detergent use solution (4000 ppm, 5 GPG water; peptidyl substrate, glycine buffer pH 9.0); assay type: biochemical; settings: for Relative Protease Enzyme Activity: use solution at 120° F.
Method in brief: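 Detergent use solutions at 4000 ppm in 5 GPG water were held at 120° F with stirring and sampled up to 4 h, with aliquots flash-frozen. Activity was read on a peptidyl substrate in glycine buffer pH 9.0 by absorbance against a calibration curve. Retention is % activity relative to the t=0 sample.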

lipase = assay: Lipase activity retention in detergent use solution (4000 ppm, 5 GPG water; p-nitrophenyl valerate, TRIS buffer pH 8.0); assay type: biochemical; settings: for Relative Lipase Enzyme Activity in a Use Solution: Table 6E, room temperature; for Relative Lipase Enzyme Activity in a Use Solution of the All Ash Detergent Composition: Table 6F, all ash formula, 120º F.; for Relative Lipase Enzyme Activity: base formula
Method in brief: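 Lipase stability was measured in a detergent use solution under conditions mimicking presoak or manual warewash, with stirring in a water bath. Aliquots were taken over time and flash-frozen. Thawed samples were diluted in TRIS buffer at pH 8.0 and assayed with p-nitrophenyl valerate as substrate on a plate reader. Activity is reported as % retained relative to the time=0 sample.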

[1] = phosphonate 0.3 wt-%, time 0 min
[2] = phosphonate 0.3 wt-%, time 5 min
[3] = phosphonate 0.3 wt-%, time 10 min
[4] = phosphonate 0.3 wt-%, time 20 min
[5] = phosphonate 0.3 wt-%, time 40 min
[6] = phosphonate 0.3 wt-%, time 60 min
[7] = phosphonate 0.3 wt-%, time 90 min
[8] = phosphonate 0.3 wt-%, time 120 min
[9] = phosphonate 0.3 wt-%, time 150 min
[10] = phosphonate 0.3 wt-%, time 180 min
[11] = phosphonate 0.3 wt-%, time 210 min
[12] = phosphonate 0.3 wt-%, time 240 min

## O=C(O)CCC(CC(=O)O)(C(=O)O)P(=O)(O)O (stereo not shown) [PBTC, Phosphonebutane tricarboxylic acid]
protease; All Ash formula, phosphonate 0.3 wt-%, time 0 min
  Relative Protease Enzyme Activity: 100.00%
protease; All Ash formula, phosphonate 0.3 wt-%, time 5 min
  Relative Protease Enzyme Activity: 11.99%
protease; All Ash formula, phosphonate 0.3 wt-%, time 10 min
  Relative Protease Enzyme Activity: 3.18%
protease; All Ash formula, phosphonate 0.3 wt-%, time 20 min
  Relative Protease Enzyme Activity: −0.81%
protease; All Ash formula, phosphonate 0.3 wt-%, time 40 min
  Relative Protease Enzyme Activity: −1.79%
protease; All Ash formula, phosphonate 0.3 wt-%, time 60 min
  Relative Protease Enzyme Activity: −1.94%
protease; All Ash formula, phosphonate 0.3 wt-%, time 90 min
  Relative Protease Enzyme Activity: −1.57%
protease; All Ash formula, phosphonate 0.3 wt-%, time 120 min
  Relative Protease Enzyme Activity: −1.11%
protease; All Ash formula, phosphonate 0.3 wt-%, time 150 min
  Relative Protease Enzyme Activity: −1.04%
protease; All Ash formula, phosphonate 0.3 wt-%, time 180 min
  Relative Protease Enzyme Activity: −2.62%
protease; All Ash formula, phosphonate 0.3 wt-%, time 210 min
  Relative Protease Enzyme Activity: −3.07%
protease; All Ash formula, phosphonate 0.3 wt-%, time 240 min
  Relative Protease Enzyme Activity: −2.02%
protease; base formula, phosphonate 0.3 wt-%, time 0 min
  Relative Protease Enzyme Activity: 100.00%
protease; base formula, phosphonate 0.3 wt-%, time 5 min
  Relative Protease Enzyme Activity: 52.04%
protease; base formula, phosphonate 0.3 wt-%, time 10 min
  Relative Protease Enzyme Activity: 30.98%
protease; base formula, phosphonate 0.3 wt-%, time 20 min
  Relative Protease Enzyme Activity: 14.75%
protease; base formula, phosphonate 0.3 wt-%, time 40 min
  Relative Protease Enzyme Activity: 7.33%
protease; base formula, phosphonate 0.3 wt-%, time 60 min
  Relative Protease Enzyme Activity: 5.15%
protease; base formula, phosphonate 0.3 wt-%, time 90 min
  Relative Protease Enzyme Activity: 4.01%
protease; base formula, phosphonate 0.3 wt-%, time 120 min
  Relative Protease Enzyme Activity: 2.91%
protease; base formula, phosphonate 0.3 wt-%, time 150 min
  Relative Protease Enzyme Activity: 2.21%
protease; base formula, phosphonate 0.3 wt-%, time 180 min
  Relative Protease Enzyme Activity: 1.52%
protease; base formula, phosphonate 0.3 wt-%, time 210 min
  Relative Protease Enzyme Activity: 1.01%
protease; base formula, phosphonate 0.3 wt-%, time 240 min
  Relative Protease Enzyme Activity: 0.63%
protease; base formula, phosphonate 0.6 wt-%, time 0 min
  Relative Protease Enzyme Activity: 100.00%
protease; base formula, phosphonate 0.6 wt-%, time 5 min
  Relative Protease Enzyme Activity: 60.27%
protease; base formula, phosphonate 0.6 wt-%, time 10 min
  Relative Protease Enzyme Activity: 35.81%
protease; base formula, phosphonate 0.6 wt-%, time 20 min
  Relative Protease Enzyme Activity: 16.27%
protease; base formula, phosphonate 0.6 wt-%, time 40 min
  Relative Protease Enzyme Activity: 7.44%
protease; base formula, phosphonate 0.6 wt-%, time 60 min
  Relative Protease Enzyme Activity: 4.84%
protease; base formula, phosphonate 0.6 wt-%, time 90 min
  Relative Protease Enzyme Activity: 2.96%
protease; base formula, phosphonate 0.6 wt-%, time 120 min
  Relative Protease Enzyme Activity: 1.76%
protease; base formula, phosphonate 0.6 wt-%, time 150 min
  Relative Protease Enzyme Activity: 1.32%
protease; base formula, phosphonate 0.6 wt-%, time 180 min
  Relative Protease Enzyme Activity: 0.91%
protease; base formula, phosphonate 0.6 wt-%, time 210 min
  Relative Protease Enzyme Activity: 0.70%
protease; base formula, phosphonate 0.6 wt-%, time 240 min
  Relative Protease Enzyme Activity: 0.39%
protease; base formula, phosphonate at 0.1% elemental phosphorus, time 0 min
  Relative Protease Enzyme Activity: 100.00%
protease; base formula, phosphonate at 0.1% elemental phosphorus, time 5 min
  Relative Protease Enzyme Activity: 86.68%
protease; base formula, phosphonate at 0.1% elemental phosphorus, time 10 min
  Relative Protease Enzyme Activity: 55.40%
protease; base formula, phosphonate at 0.1% elemental phosphorus, time 20 min
  Relative Protease Enzyme Activity: 23.91%
protease; base formula, phosphonate at 0.1% elemental phosphorus, time 40 min
  Relative Protease Enzyme Activity: 8.20%
protease; base formula, phosphonate at 0.1% elemental phosphorus, time 60 min
  Relative Protease Enzyme Activity: 4.68%
protease; base formula, phosphonate at 0.1% elemental phosphorus, time 90 min
  Relative Protease Enzyme Activity: 2.99%
protease; base formula, phosphonate at 0.1% elemental phosphorus, time 120 min
  Relative Protease Enzyme Activity: 2.04%
protease; base formula, phosphonate at 0.1% elemental phosphorus, time 150 min
  Relative Protease Enzyme Activity: 1.54%
protease; base formula, phosphonate at 0.1% elemental phosphorus, time 180 min
  Relative Protease Enzyme Activity: 1.01%
protease; base formula, phosphonate at 0.1% elemental phosphorus, time 210 min
  Relative Protease Enzyme Activity: 0.73%
protease; base formula, phosphonate at 0.1% elemental phosphorus, time 240 min
  Relative Protease Enzyme Activity: 0.42%
protease; phosphonate neutralized with an amine, such as triethanolamine
  enzyme activity of amine salt of the phosphonate versus non-neutralized phosphonate: much improved enzyme activity
lipase; [1]
  Relative Lipase Enzyme Activity in a Use Solution: 100.00%
  Relative Lipase Enzyme Activity in a Use Solution of the All Ash Detergent Composition: 100.00%
lipase; [2]
  Relative Lipase Enzyme Activity in a Use Solution: 84.82%
  Relative Lipase Enzyme Activity in a Use Solution of the All Ash Detergent Composition: 44.27%
lipase; [3]
  Relative Lipase Enzyme Activity in a Use Solution: 101.70%
  Relative Lipase Enzyme Activity in a Use Solution of the All Ash Detergent Composition: 26.34%
lipase; [4]
  Relative Lipase Enzyme Activity in a Use Solution: 98.72%
  Relative Lipase Enzyme Activity in a Use Solution of the All Ash Detergent Composition: 13.39%
lipase; [5]
  Relative Lipase Enzyme Activity in a Use Solution: 109.31%
  Relative Lipase Enzyme Activity in a Use Solution of the All Ash Detergent Composition: 3.62%
lipase; [6]
  Relative Lipase Enzyme Activity in a Use Solution: 103.07%
  Relative Lipase Enzyme Activity in a Use Solution of the All Ash Detergent Composition: 1.82%
lipase; [7]
  Relative Lipase Enzyme Activity in a Use Solution: 104.82%
  Relative Lipase Enzyme Activity in a Use Solution of the All Ash Detergent Composition: 0.36%
lipase; [8]
  Relative Lipase Enzyme Activity in a Use Solution: 102.36%
  Relative Lipase Enzyme Activity in a Use Solution of the All Ash Detergent Composition: 0.52%
lipase; [9]
  Relative Lipase Enzyme Activity in a Use Solution: 105.67%
  Relative Lipase Enzyme Activity in a Use Solution of the All Ash Detergent Composition: 2.28%
lipase; [10]
  Relative Lipase Enzyme Activity in a Use Solution: 81.94%
  Relative Lipase Enzyme Activity in a Use Solution of the All Ash Detergent Composition: 2.33%
lipase; [11]
  Relative Lipase Enzyme Activity in a Use Solution: 101.51%
  Relative Lipase Enzyme Activity in a Use Solution of the All Ash Detergent Composition: 3.25%
lipase; [12]
  Relative Lipase Enzyme Activity in a Use Solution: 110.35%
  Relative Lipase Enzyme Activity in a Use Solution of the All Ash Detergent Composition: 3.58%
lipase; phosphonate 0.3 wt-%, use solution at 120° F., time 0 min
  Relative Lipase Enzyme Activity: 100.00%
lipase; phosphonate 0.3 wt-%, use solution at 120° F., time 5 min
  Relative Lipase Enzyme Activity: 73.63%
lipase; phosphonate 0.3 wt-%, use solution at 120° F., time 10 min
  Relative Lipase Enzyme Activity: 66.55%
lipase; phosphonate 0.3 wt-%, use solution at 120° F., time 20 min
  Relative Lipase Enzyme Activity: 48.22%
lipase; phosphonate 0.3 wt-%, use solution at 120° F., time 40 min
  Relative Lipase Enzyme Activity: 26.23%
lipase; phosphonate 0.3 wt-%, use solution at 120° F., time 60 min
  Relative Lipase Enzyme Activity: 15.51%
lipase; phosphonate 0.3 wt-%, use solution at 120° F., time 90 min
  Relative Lipase Enzyme Activity: 7.72%
lipase; phosphonate 0.3 wt-%, use solution at 120° F., time 120 min
  Relative Lipase Enzyme Activity: 3.90%
lipase; phosphonate 0.3 wt-%, use solution at 120° F., time 150 min
  Relative Lipase Enzyme Activity: 2.70%
lipase; phosphonate 0.3 wt-%, use solution at 120° F., time 180 min
  Relative Lipase Enzyme Activity: −0.75%
lipase; phosphonate 0.3 wt-%, use solution at 120° F., time 210 min
  Relative Lipase Enzyme Activity: −1.86%
lipase; phosphonate 0.3 wt-%, use solution at 120° F., time 240 min
  Relative Lipase Enzyme Activity: −2.20%
lipase; phosphonate 0.6 wt-%, use solution at 120º F., time 0 min
  Relative Lipase Enzyme Activity: 100.00%
lipase; phosphonate 0.6 wt-%, use solution at 120º F., time 5 min
  Relative Lipase Enzyme Activity: 61.52%
lipase; phosphonate 0.6 wt-%, use solution at 120º F., time 10 min
  Relative Lipase Enzyme Activity: 62.20%
lipase; phosphonate 0.6 wt-%, use solution at 120º F., time 20 min
  Relative Lipase Enzyme Activity: 44.99%
lipase; phosphonate 0.6 wt-%, use solution at 120º F., time 40 min
  Relative Lipase Enzyme Activity: 31.89%
lipase; phosphonate 0.6 wt-%, use solution at 120º F., time 60 min
  Relative Lipase Enzyme Activity: 23.30%
lipase; phosphonate 0.6 wt-%, use solution at 120º F., time 90 min
  Relative Lipase Enzyme Activity: 16.36%
lipase; phosphonate 0.6 wt-%, use solution at 120º F., time 120 min
  Relative Lipase Enzyme Activity: 12.11%
lipase; phosphonate 0.6 wt-%, use solution at 120º F., time 150 min
  Relative Lipase Enzyme Activity: 9.68%
lipase; phosphonate 0.6 wt-%, use solution at 120º F., time 180 min
  Relative Lipase Enzyme Activity: 6.06%
lipase; phosphonate 0.6 wt-%, use solution at 120º F., time 210 min
  Relative Lipase Enzyme Activity: 6.80%
lipase; phosphonate 0.6 wt-%, use solution at 120º F., time 240 min
  Relative Lipase Enzyme Activity: 5.96%
lipase; phosphonate at 0.1% elemental phosphorus, at 120º F. or at room temperature (as titled), time 0 min
  Relative Lipase Enzyme Activity: 100.00%
lipase; phosphonate at 0.1% elemental phosphorus, at 120º F. or at room temperature (as titled), time 5 min
  Relative Lipase Enzyme Activity: 87.75%
lipase; phosphonate at 0.1% elemental phosphorus, at 120º F. or at room temperature (as titled), time 10 min
  Relative Lipase Enzyme Activity: 73.69%
lipase; phosphonate at 0.1% elemental phosphorus, at 120º F. or at room temperature (as titled), time 20 min
  Relative Lipase Enzyme Activity: 56.53%
lipase; phosphonate at 0.1% elemental phosphorus, at 120º F. or at room temperature (as titled), time 40 min
  Relative Lipase Enzyme Activity: 25.32%
lipase; phosphonate at 0.1% elemental phosphorus, at 120º F. or at room temperature (as titled), time 60 min
  Relative Lipase Enzyme Activity: 19.97%
lipase; phosphonate at 0.1% elemental phosphorus, at 120º F. or at room temperature (as titled), time 90 min
  Relative Lipase Enzyme Activity: 15.95%
lipase; phosphonate at 0.1% elemental phosphorus, at 120º F. or at room temperature (as titled), time 120 min
  Relative Lipase Enzyme Activity: 12.52%
lipase; phosphonate at 0.1% elemental phosphorus, at 120º F. or at room temperature (as titled), time 150 min
  Relative Lipase Enzyme Activity: 11.11%
lipase; phosphonate at 0.1% elemental phosphorus, at 120º F. or at room temperature (as titled), time 180 min
  Relative Lipase Enzyme Activity: 10.01%
lipase; phosphonate at 0.1% elemental phosphorus, at 120º F. or at room temperature (as titled), time 210 min
  Relative Lipase Enzyme Activity: 9.16%
lipase; phosphonate at 0.1% elemental phosphorus, at 120º F. or at room temperature (as titled), time 240 min
  Relative Lipase Enzyme Activity: 9.12%
